In ChEMBL document CHEMBL4138122, “Azaphenothiazines - promising phenothiazine derivatives. An insight into nomenclature, synthesis, structure elucidation and biological properties” (Eur J Med Chem, 2017):
Values after ≈ are worked out from the molar mass of the structure shown.

Experiments:
[1] = tested on: Rattus norvegicus; assay: Antiinflammatory activity in rat assessed as inhibition of yeast-induced foot edema at 60 mg/kg; assay type: functional
[2] = Inhibition of lipoxygenase in rat peritoneal cavity resident cells
[3] = Toxicity in rat assessed as survival rate at 50 mg/kg; assay type: organism-based; details: in vivo
[4] = organism: Rattus norvegicus; assay: Antioxidant activity in albino rat assessed as inhibition of catalase induced H2O2 production; assay type: functional
[5] = Antioxidant activity assessed as H2O2 scavenging activity; assay type: functional; details: dose or concentration not given here
[6] = tested on: Escherichia coli; assay: Antibacterial activity against Escherichia coli by CLSI protocol based method; assay type: functional
[7] = tested on: Aspergillus niger; assay: Antifungal activity against Aspergillus niger by CLSI protocol based method; assay type: functional
[8] = tested on: Mycobacterium tuberculosis; assay: Antitubercular activity against Mycobacterium tuberculosis H37Rv; assay type: functional
[9] = tested on: SK-MEL-2; assay: Growth inhibition of human SK-MEL-2 cells at 10 uM; assay type: functional; details: read-out: GI
[10] = tested on: UO-31; assay: Growth inhibition of human UO31 cells at 10 uM; assay type: functional; details: read-out: GI
[11] = tested on: Ancylostoma caninum; assay: Anthelmintic activity against dog hookworm larvae infected in mouse assessed as protection against infection rate at 0.06%; assay type: functional
[12] = tested on: Candida albicans; assay: microbe, parasite or virus in culture
Description: Antimicrobial activity against Candida albicans

[13] = tested on: Aspergillus niger; assay: Antifungal activity against Aspergillus niger; assay type: functional
[14] = Inhibition of LTB4 formation in rat polymorphonuclear leukocytes preincubated for 2 mins followed by A-23187 addition after 4 mins; assay type: functional, cell-based
[15] = tested on: Rattus norvegicus; assay: Anti-asthmatic activity in rat assessed as inhibition of egg albumin-induced duration of symptoms of dyspnoea at 5 mg/kg, po administered 90 mins prior to dyspnoea induction; assay type: functional
[16] = tested on: Rattus norvegicus; assay: Anti-asthmatic activity in rat assessed as inhibition of egg albumin-induced duration of symptoms of dyspnoea at 3 mg/kg, po administered 90 mins prior to dyspnoea induction; assay type: functional
[17] = tested on: UO-31; assay: Cytotoxicity against human UO31 cells assessed as cell growth inhibition at 3.2 ug/ml after 48 hrs by SRB assay; assay type: functional; details: UO-31, 48 h, read-out: GI
[18] = tested on: Trachea; assay: Inhibition of egg albumin antigen challenge-induced contraction response in methacholine-primed guinea pig trachea at 3 ug/ml; assay type: functional; details: Cavia porcellus
[19] = tested on: SNB-19; assay: Cytotoxicity against human SNB19 cells incubated for 72 hrs by WST1 dye based assay; assay type: functional, cell-based; details: SNB-19, 72 h
[20] = tested on: T47D; assay: Cytotoxicity against human T47D cells; assay type: functional, cell-based
[21] = tested on: MCF7; assay: Cytotoxicity against human MCF7 cells incubated for 72 hrs by WST1 dye based assay; assay type: functional, cell-based; details: MCF7, 72 h
[22] = tested on: C32; assay: Cytotoxicity against human C32 cells incubated for 72 hrs by WST1 dye based assay; assay type: functional, cell-based; details: C32, 72 h
[23] = tested on: HFF-1; assay: Cytotoxicity against human HFF1 cells incubated for 72 hrs by WST1 dye based assay; assay type: cell-based; details: HFF-1, 72 h
[24] = tested on: MCF7; assay: Growth inhibition of human MCF7 cells at 10 uM; assay type: functional; details: read-out: GI
[25] = biological target: Lipoxygenase (Glycine max, UniProt Q39829); assay: Inhibition of soybean lipoxygenase
[26] = tested on: Human immunodeficiency virus; assay: Antiviral activity against HIV infected in human MT4 cells; assay type: functional, organism-based; details: Human immunodeficiency virus 1, MT4

Structure (SMILES): Cn1c(=O)nc2sc3ccccc3nc-2c1=O
- inhibition in vivo at 60 mg/kg [1]: 69%
- IC50 [2]: 1.4 µM
- survival [3]: 69%

Structure (SMILES): O=C1O[C@H]([C@@H](O)CO)C(O)=C1O [ASCORBIC ACID]
- inhibition (INH) [4]: 71.9%

Structure (SMILES): O=C1C(Cl)=C2Sc3cccnc3NC2c2ccccc21 (stereo unspecified)
- inhibition (INH) [4]: 77.9%
- inhibition [5]: < 100%

Structure (SMILES): CCSc1ncc2c(n1)N=c1c(Cl)c3c(c(Cl)c1S2)=Nc1nc(SCC)nc(O)c1S3
- MIC [6]: 169 µg/mL (≈ 320 µM)
- MIC [7]: 138 µg/mL (≈ 262 µM)

Structure (SMILES): O=c1[nH]c2ccc(Cl)cc2c2c1Sc1cc(Cl)ccc1N2
- MIC [8]: > 6.25 µg/mL

Structure (SMILES): O=C1C(c2ccc(Br)cc2)=C2Sc3cccnc3NC2c2ccccc21 (stereo unspecified)
- inhibition [5]: < 100%

Structure (SMILES): c1ccc(N2c3nc4ccccc4cc3Sc3cc4ccccc4nc32)nc1
- inhibition of growth at 10 µM [9]: 61%
- inhibition of growth at 10 µM [10]: 57 to 73%

Structure (SMILES): Clc1nc2c(nc1Cl)Sc1ccccc1N2
- Activity [11]: 90%

Structure (SMILES): CC(=O)N1CCN(c2ccc(OCC3COC(Cn4ccnc4)(c4ccc(Cl)cc4Cl)O3)cc2)CC1 (stereo unspecified) [KETOCONAZOLE]
- MIC [12]: 62.2 µg/mL (≈ 117 µM)
- MIC [13]: 136 µg/mL (≈ 255 µM)
- MIC [7]: 136 µg/mL (≈ 255 µM)

Structure (SMILES): Oc1ccc2c(c1)Sc1nccnc1N2
- IC50 [14]: 0.05 to 1 µg/mL (≈ 0.23 to 4.6 µM)
- inhibition in vivo at 5 mg/kg [15]: 47%
- inhibition in vivo at 3 mg/kg [16]: 43%

Structure (SMILES): O=[N+]([O-])c1ccc(N2c3ccncc3Sc3ccncc32)cc1
- inhibition of growth at 3.2 µg/mL [17]: 44%

Structure (SMILES): COc1ccc2c(c1)Sc1nccnc1N2C
- IC50 [14]: 1 to 5 µg/mL (≈ 4.08 to 20.4 µM)
- inhibition at 3 µg/mL [18]: 71%

Structure (SMILES): CN(C)CCCN1c2ccccc2Sc2cccnc21 [PROTHIPENDYL]
- IC50 [19]: ≥ 23 µg/mL
- IC50 [20]: 32.3 µg/mL (≈ 113 µM)
- IC50 [21]: ≥ 23 µg/mL
- IC50 [22]: ≥ 23 µg/mL
- IC50 [23]: ≥ 23 µg/mL

Structure (SMILES): Clc1ccc(N2c3nc4ccccc4cc3Sc3cc4ccccc4nc32)cc1
- inhibition of growth at 10 µM [24]: 63%
- inhibition of growth at 10 µM [10]: 57 to 73%

Structure (SMILES): CCCc1nc(N2CCN(C)CC2)nc2c1Nc1ccccc1S2
- IC50 [25]: 8.9 µM

Structure (SMILES): CCOCn1c(=O)[nH]c2c(c1=O)Nc1ccc(Cl)cc1S2
- IC50 [26]: 4.3 µM
